Earlier results in patent US11235023B2, “Beta-hairpin peptidomimetic with elastase inhibitory activity and aerosol dosage forms thereof” (POLYPHOR AG, priority 2016, dated 2022).

Assays:
neutrophil elastase = target: T1, neutrophil elastase (Mus musculus, UniProt Q3UP87); details: mouse model of neutrophil allergen challenge; cited from earlier work
T1 sequence (Q3UP87 27-265): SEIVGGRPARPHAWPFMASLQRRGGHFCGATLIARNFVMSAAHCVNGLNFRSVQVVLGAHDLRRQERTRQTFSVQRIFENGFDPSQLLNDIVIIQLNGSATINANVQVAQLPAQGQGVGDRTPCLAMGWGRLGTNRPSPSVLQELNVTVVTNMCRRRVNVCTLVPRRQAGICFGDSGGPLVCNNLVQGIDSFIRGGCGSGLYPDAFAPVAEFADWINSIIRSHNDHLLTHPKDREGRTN

elastase = details: nasal instillation, CD-1 mice; cited from earlier work

Compound	Effect on airway hyperresponsiveness and inflammation (neutrophil elastase)	Protection against elastase-mediated injury (elastase)
CC(C)(C)C(=O)Oc1ccc(S(=O)(=O)Nc2ccccc2C(=O)NCC(=O)O)cc1 [sivelelstat]	attenuates airway hyperresponsiveness and inflammation	–
rhalpha1PI: recombinant form of the elastase inhibitor alpha-1-proteinase inhibitor (alpha1PI)	–	highly protective
